Measurements from patent US8691982B2, “Pyrazolo[1,5-a]-1,3,5-triazine derivatives, preparation thereof, and therapeutic use thereof” (Centre National de la Recherche Scientifique, priority 2009, dated 2014).
pIC50: −log10 of the molar value. Structures can show the parent of a compound that is named as a salt.

What was measured:
[1] = test system: SH-SY5Y human neuroblastoma cells; experiment: SH-SY5Y cell viability (MTS reduction); format: cell-based; conditions: SH-SY5Y cell line, cell viability by MTS
Experimental: A Cell Titer 96® kit containing the MTS reagent was purchased from Promega (Madison, Wis., USA). The protease inhibitor cocktail came from Roche and the fetal calf serum (FCS) came from Invitrogen. The reagents not listed came from Sigma, unless otherwise indicated.
The SH-SY5Y human neuroblastoma cell line was grown in a DMEM medium with L-glutamine from Invitrogen (Cergy Pontoise, France), antibiotics and 10% by volume of FCS from Invitrogen. The general culture conditions were a 5% CO2 atmosphere and a temperature of 37° C. The culture plates and other disposable plastic tools were supplied by Corning (Corning, N.Y., USA). The treatments with the compounds of the invention were carried out on cultures in exponential growth over time, and indicated concentrations. The control experiments were carried out also using suitable dilutions of DMSO.
The cell viability was determined by measuring the reduction of 3-(4,5-dimethylthiazol-2-yl)-5-(3-carboxymethoxyphenyl)-2-(4-sulfophenyl)-2H-tetrazolium (MTS).

[2] = target: CDK5/p25 (Homo sapiens, UniProt Q00535); experiment: CDK5/p25 kinase assay; format: biochemical, mammalian; conditions: 15 μM ATP, 30° C., histone H1 substrate
Experimental: (§1) Buffer C: 60 mM β-glycerophosphate, 15 mM p-nitrophenyl phosphate, 25 mM Mops (pH 7.2), 5 mM EGTA, 15 mM MgCl2, 1 mM DTT, 1 mM sodium vanadate, 1 mM phenyl phosphate, 10 μg leupeptin/ml, 10 μg aprotinin/ml and 100 μM benzamidine.
(§2) Controls were performed with appropriate dilutions of dimethyl sulfoxide.
(§3) ATP (3000 Ci/mmol; 10 mCi/ml) in a final volume of 30 μl. After incubation for 30 minutes at 30° C., aliquotes of 25 μl of the supernatant were spotted onto Whatman P81 phosphocellulose paper filters and, 20 seconds later, the filters were washed five times (for at least five minutes each time) in a solution of 10 ml of phosphoric acid/liter of water. The wet filters were subjected to counting in the presence of an ACS scintillation fluid from Amersham. CDK2/cyclin A (human, recombinant, expressed in insect cells) was assayed as described for CDK1/cyclin B. CDK5/p25 was reconstituted by mixing equal amounts of recombinant mammalian CDK5 and p25 expressed in E. coli as a GST (glutathione-S-transferase) fusion protein and purified by affinity chromatography on glutathione-agarose (p25 is a truncated version of p35, the 35 kDa CDK5 activator). […] DYRK1A (human, recombinant, expressed in E. coli as a GST fusion protein) was purified on glutathione-agarose, assayed as described for CDK1/cyclin B with myelin basic protein (1 mg/ml) as substrate.

[3] = target: CK1δ/ε; experiment: CK1δ/ε kinase assay; format: biochemical, pig; conditions: 15 μM ATP, 30° C., CK1-specific peptide substrate
Experimental: (§4) The blank values were subtracted and the activities calculated as μmoles of phosphate incorporated per 10 minutes of incubation. […] Controls were performed with appropriate dilutions of dimethyl sulfoxide.
as §3

[4] = target: T1, CDK2/cyclin A (Homo sapiens, UniProt P24941); experiment: CDK2/cyclin A kinase assay; format: biochemical; conditions: 15 μM ATP, 30° C., histone H1 substrate
T1 construct: host or cells: insect cells
Experimental: as §1, §2, §3

[5] = test system: Human chronic lymphoid leukemia (B-CLL) lymphocytes; experiment: B-CLL cell apoptosis (annexin V / propidium iodide, flow cytometry); format: cell-based; conditions: B-CLL cells from patients
Experimental: The CLL cells were isolated from heparinized blood of untreated patients after informed consent.
The mononuclear cells were isolated by centrifugation on a Lymphosep density gradient (Biowest). […] When the percentage of CD19+/CD5+ cells was less than 90%, the B lymphocytes were enriched using the kit II for B-cell enrichment by immunomagnetic depletion of the monocytes, NK cells, granulocytes and T lymphocytes (Miltenyi Biotech).
After incubation, the B-CLL cells were harvested, washed in PBS and resuspended in 100 μl of 1× binding buffer containing FITC-conjugated annexin V and propidium iodide (Beckman Coulter Apoptosis Detection Kit). After incubation for 10 min on ice, the cells were analyzed by flow cytometry and the percentage of cells undergoing apoptosis was determined.

[6] = target: T2, CDK9/cyclin T (Homo sapiens, UniProt P50750); experiment: CDK9/cyclin T kinase assay; format: biochemical; conditions: 15 μM ATP, 30° C., pRB fragment substrate
T2 construct: host or cells: insect cells

[7] = target: CDK1/cyclin B; experiment: CDK1/cyclin B kinase assay; format: biochemical, starfish (Marthasterias glacialis); conditions: 15 μM ATP, 30° C., histone H1 substrate
Experimental: Homogenization buffers: 60 mM β-glycerophosphate, 15 mM p-nitrophenyl phosphate, 25 mM Mops (pH 7.2), 15 mM EGTA, 15 mM MgCl2, 1 mM DTT, 1 mM sodium vanadate, 1 mM NaF, 1 mM phenyl phosphate, 10 μg leupeptin/ml, 10 μg aprotinin/ml, 10 μg soybean trypsin inhibitor/ml and 100 μM benzamidine.
as §1, §2, §3

[8] = target: DYRK1A (Homo sapiens, UniProt Q13627); experiment: DYRK1A kinase assay; format: biochemical; conditions: 15 μM ATP, 30° C., myelin basic protein substrate
Experimental: as §4, §3

[9] = target: GSK-3α/β; experiment: GSK-3α/β kinase assay; format: biochemical, pig; conditions: 15 μM ATP, 30° C., buffer A, GS-1 substrate
[10] = test system: the four kinases assayed; experiment: Tests on the four kinases assayed (comparison of enantiomers 34 and 31); format: biochemical; conditions: 34 versus 31
Experimental: The kinases were assayed in buffer A or buffer C, at 30° C., at a final ATP concentration of 15 μM. The blank values were subtracted and the activities calculated as μmoles of phosphate incorporated per 10 minutes of incubation. The activities are usually expressed as % (percentage) of maximum activity, i.e. in the absence of inhibitors. Controls were performed with appropriate dilutions of dimethyl sulfoxide.
[…]. J. Biochem. 1997, 243, 527-536. The kinase activity was assayed in buffer C, with 1 mg of histone H1/ml, in the presence of 15 μM of [γ-^33P] ATP (3000 Ci/mmol; 10 mCi/ml) in a final volume of 30 μl. After incubation for 30 minutes at 30° C., aliquotes of 25 μl of the supernatant were spotted onto Whatman P81 phosphocellulose paper filters and, 20 seconds later, the filters were washed five times (for at least five minutes each time) in a solution of 10 ml of phosphoric acid/liter of water. The wet filters were subjected to counting in the presence of an ACS scintillation fluid from Amersham. […]

Sequence of CDK5/p25 (Q00535 whole entry, species assumed): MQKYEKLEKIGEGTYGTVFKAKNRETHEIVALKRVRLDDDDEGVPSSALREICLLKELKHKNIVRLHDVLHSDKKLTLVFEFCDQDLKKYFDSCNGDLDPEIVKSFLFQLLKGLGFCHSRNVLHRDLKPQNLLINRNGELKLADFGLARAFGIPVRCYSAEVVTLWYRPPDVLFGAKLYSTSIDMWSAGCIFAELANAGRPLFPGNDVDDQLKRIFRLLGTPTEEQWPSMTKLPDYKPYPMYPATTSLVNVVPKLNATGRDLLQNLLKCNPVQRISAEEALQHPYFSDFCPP
Sequence of CDK5/p25 (Q15078 99-307 partner limits assumed, species assumed): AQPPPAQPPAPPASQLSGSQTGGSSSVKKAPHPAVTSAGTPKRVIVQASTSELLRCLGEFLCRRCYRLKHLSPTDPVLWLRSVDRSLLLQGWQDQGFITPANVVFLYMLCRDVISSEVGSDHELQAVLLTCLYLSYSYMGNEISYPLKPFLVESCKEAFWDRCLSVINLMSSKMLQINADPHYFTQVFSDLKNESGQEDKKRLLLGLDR
T2 sequence (P50750 whole entry, the tested form may be a part): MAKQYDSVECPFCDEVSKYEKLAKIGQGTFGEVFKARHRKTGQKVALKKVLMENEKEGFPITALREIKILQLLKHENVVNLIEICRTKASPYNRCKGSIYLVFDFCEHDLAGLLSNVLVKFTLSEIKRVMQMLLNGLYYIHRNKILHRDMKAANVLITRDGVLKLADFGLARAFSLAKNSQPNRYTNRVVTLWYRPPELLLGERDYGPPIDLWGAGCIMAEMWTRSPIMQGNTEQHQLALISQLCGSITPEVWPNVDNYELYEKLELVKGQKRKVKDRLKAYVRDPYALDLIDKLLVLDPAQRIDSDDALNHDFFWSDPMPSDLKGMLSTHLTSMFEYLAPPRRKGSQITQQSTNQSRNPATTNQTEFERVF
T2 sequence (O60563 whole entry partner, the tested form may be a part): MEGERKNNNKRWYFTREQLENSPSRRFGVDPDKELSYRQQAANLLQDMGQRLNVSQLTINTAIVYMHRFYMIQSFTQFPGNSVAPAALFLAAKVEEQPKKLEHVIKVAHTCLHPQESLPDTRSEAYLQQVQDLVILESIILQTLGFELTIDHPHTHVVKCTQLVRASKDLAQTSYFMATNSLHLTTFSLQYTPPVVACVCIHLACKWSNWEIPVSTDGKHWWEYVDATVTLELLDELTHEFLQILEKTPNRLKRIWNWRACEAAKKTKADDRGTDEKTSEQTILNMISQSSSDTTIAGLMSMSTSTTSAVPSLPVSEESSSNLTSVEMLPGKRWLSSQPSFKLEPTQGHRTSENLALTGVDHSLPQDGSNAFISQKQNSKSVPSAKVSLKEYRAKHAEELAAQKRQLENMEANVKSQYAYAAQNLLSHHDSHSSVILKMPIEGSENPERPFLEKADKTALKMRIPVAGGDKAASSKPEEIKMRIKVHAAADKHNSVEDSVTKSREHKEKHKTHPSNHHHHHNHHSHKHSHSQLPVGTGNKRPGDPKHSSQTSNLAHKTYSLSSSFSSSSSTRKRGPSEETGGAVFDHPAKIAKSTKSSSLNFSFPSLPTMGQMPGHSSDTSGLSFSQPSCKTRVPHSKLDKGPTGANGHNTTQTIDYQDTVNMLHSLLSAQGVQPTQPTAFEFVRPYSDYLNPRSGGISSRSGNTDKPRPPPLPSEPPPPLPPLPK

| Compound | pIC50 [1] | pIC50 [2] | pIC50 [3] | pIC50 [4] | pIC50 [5] | pIC50 [6] | pIC50 [7] | pIC50 [8] | pIC50 [9] | pIC50 ([1]; Homo sapiens) | activity compared with enantiomer on the four kinases assayed [10] | pIC50 ([5]; Homo sapiens) |
| --- | --- | --- | --- | --- | --- | --- | --- | --- | --- | --- | --- | --- |
| CC[C@H](CO)Nc1nc(NCc2ccc(-c3ccccn3)cc2)n2ncc(C(C)C)c2n1 [Compound 3, Fumarate salt of (R)-2-(1-hydroxybut-2-ylamino)-8-isopropyl-4-[4-(pyridin-2-yl)benzylamino]pyrazolo[1,5-a]-1,3,5-triazine] | 7.23 | 7.74 | 6.89 | 7.68 | 7.49 | 7.51 | 7.80 | 5.66 | 5.51 |  |  |  |
| CCc1cnn2c(NCc3ccc(-c4ccccn4)cc3)nc(NC[C@H](O)CO)nc12 [Compound 34, (S)-2-(1,2-dihydroxypropan-3-ylamino)-8-ethyl-4-[4-(pyridin-2-yl)benzylamino]pyrazolo[1,5-a]-1,3,5-triazine] |  | 8.00 | 7.00 |  |  |  |  | 6.38 | 6.28 | > 7.52 | more active than the derivative 31 |  |
| CC[C@H](CO)Nc1nc(NCc2ccc(-c3ccccn3)cc2)n2ncc(C(C)C)c2n1 [Compound 2, (R)-2-(1-hydroxybut-2-ylamino)-8-isopropyl-4-[4-(pyridin-2-yl)benzylamino]pyrazolo[1,5-a]-1,3,5-triazine] |  | 7.40 | 6.68 | 7.55 |  | 7.14 | 7.64 | 5.74 | 5.40 | 7.36 |  | 7.49 |
| CC[C@H](CO)Nc1nc(NCc2ccc(-c3ccccc3)cc2)n2ncc(C(C)C)c2n1 [Compound 1, (R)-2-(1-hydroxybut-2-ylamino)-8-isopropyl-4-(4-phenylbenzylamino)pyrazolo[1,5-a]-1,3,5-triazine] |  | 6.74 | 6.68 | 6.66 |  | 7.03 | 6.74 | 5.66 | < 5.00 | 6.37 |  | 6.72 |
